The record followed here is EP4692091A1, “CA[…], AND PHARMACEUTICAL COMPOSITION, PREPARATION METHOD THEREFOR AND USE THEREOF” (Changchun Genescience Pharmaceutical Co., Ltd., priority 2023, dated 2024).

Data set [1] is described as follows: Pharmacokinetic test in SD rats. Type of data set: in vivo. The conditions noted are these: rat, 2 mg/kg, male SD rats, single intravenous injection, 2 mpk, plasma. The protocol: After a single intravenous injection (dose: 2 mpk) of the compounds 6-2, 11-2, 17-2, and Dxd into male SD rats (blood collection time points: 0.083 h, 0.25 h, 0.5 h, 1 h, 2 h, 4 h, 8 h, and 24 h after IV administration, totaling 8 blood collection time points), average pharmacokinetic parameters in the plasma are as shown in Table 5: Table 5 Pharmacokinetic test result of representative compounds

Data set [2] is described as follows: Stability of compounds in human plasma. Type of data set: in vitro ADME. The conditions noted are these: 37°C, 5 µmol/L. The protocol:
• (1) 199 µL of human plasma was added to the culture plate of each cell. The culture plate was preheated to 37°C, and kept at this temperature for 15 min. • (2) After preincubation, 1 µL of 1 mmol/L each test compound and 1 µL of 1 mmol/L control compound were added to 199 µL of plasma, so that a final concentration of each test compound was 5 µmol/L and that of the control compound was 5 µmol/L. The final concentration of the organic solvent was 0.5%. The experiment would be duplicated twice. • (3) Reaction samples were incubated at 37°C. • (4) The reaction was stopped by adding 600 µL of cold methanol containing the internal standard at 0, 1, 2, 6, and 24 h. Each sample was vortex mixed for 10 min, and then centrifuged at 3,220 g for 30 min to precipitate the protein. […] Based on the signal response and peak shapes of liquid chromatography-mass spectrometry (LC-MS), the supernatant would be diluted with ultrapure water.
All calculations were performed using Microsoft Excel. The peak area ratio was determined from the chromatogram of extracted ions. The percentage of compounds remaining at each time point was calculated as per the following formula: Residual percentagetmin (%) = peak area ratiotmin /peak areat0 × 100 [formula]

Each structure is given as a SMILES string.

Broadly, the AUC(0-inf) is the area under the concentration-time curve extrapolated to infinity. Higher therefore signals high exposure. A word on the AUC(0-t): it is exposure summed from dosing to a finite time, without extrapolation to infinity. Read a high AUC(0-t) as high exposure. By clearance is commonly meant the volume of plasma or blood freed of the substance per unit of time. A high value points to efficient removal. As usually defined, the half-life is how long it takes for the measured level to halve. In data set [1], `CC[C@@]1(O)C(=O)OCc2c1cc1n(c2=O)Cc2c-1nc1cc(F)c(C)c3c1c2[C@@H](NC(=O)CO)CC3` [Dxd] yielded an AUC(0-inf) of 302 ng·h/mL, an AUC(0-t) of 301 ng·h/mL, a C0 of 748 ng/mL and a clearance of 113 mL/min/kg. For the same compound, the half-life in data set [1] is 23.4 min. Besides, the Vd in data set [1] (read-out: Vss) came out at 2.7 L/kg. In data set [2] (0 h), the “Residual percentage (%)” value came out at 100.00%. Further, in data set [2] (1 h, read-out: Residual percentage (%)), the remaining at 1 h, 5 µM was 89.4%. Besides, the remaining at 2 h, 5 µM in data set [2] (2 h, read-out: Residual percentage (%)) was found to be 86.8%. Moreover, the remaining at 6 h, 5 µM in data set [2] (6 h, read-out: Residual percentage (%)) was 86.4%. Also, the remaining at 24 h, 5 µM in data set [2] (24 h, read-out: Residual percentage (%)) came to 82.3%.
